Reference: US8716303B2, “N-(hetero)aryl-pyrrolidine derivatives of pyrazol-4-yl-pyrrolo[2,3-d]pyrimidines and pyrrol-3-yl-pyrrolo[2,3-d]pyrimidines as janus kinase inhibitors” (Incyte Corporation, priority 2009, dated 2014)
pIC50: −log10 of the molar value. Counter-ions that a name gives are not always drawn.

Key:
[1] = biological target: T1, human JAK1 (a.a. 837-1142) (Homo sapiens, UniProt P23458); test: In vitro JAK kinase assay (HTRF, phosphorylation of a biotinylated peptide), JAK1; assay type: biochemical
T1 construct: human JAK1 (a.a. 837-1142); His tag (N); made in house; host or cells: insect cells (baculovirus)
T1 sequence (P23458 849-1154): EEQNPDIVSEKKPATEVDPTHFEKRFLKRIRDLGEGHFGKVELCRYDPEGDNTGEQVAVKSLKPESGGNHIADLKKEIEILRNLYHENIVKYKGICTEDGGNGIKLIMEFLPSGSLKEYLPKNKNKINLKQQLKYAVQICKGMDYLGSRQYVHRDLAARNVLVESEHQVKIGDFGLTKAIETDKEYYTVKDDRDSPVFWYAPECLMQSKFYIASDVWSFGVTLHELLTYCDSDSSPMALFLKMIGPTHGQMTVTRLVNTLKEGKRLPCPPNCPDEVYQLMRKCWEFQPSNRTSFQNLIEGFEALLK
Method in brief: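 His-tagged catalytic domains (JAK1 a.a. 837-1142, JAK2 a.a. 828-1132) from insect cells phosphorylate 500 nM biotinylated peptide in 50 mM Tris pH 7.8, 100 mM NaCl, 5 mM DTT; ATP at Km (90 μM JAK1, 30 μM JAK2) or 1 mM, as indicated. 1 h at RT; EDTA stop, HTRF readout; IC50s.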

[2] = biological target: T2, Jak2 (a.a. 828-1132) (Homo sapiens, UniProt O60674); test: In vitro JAK kinase assay (HTRF, phosphorylation of a biotinylated peptide), JAK2, reported as JAK2/JAK1 ratio; assay type: biochemical
T2 construct: Jak2 (a.a. 828-1132); His tag (N); made in house; host or cells: insect cells (baculovirus)
T2 sequence (O60674 828-1132): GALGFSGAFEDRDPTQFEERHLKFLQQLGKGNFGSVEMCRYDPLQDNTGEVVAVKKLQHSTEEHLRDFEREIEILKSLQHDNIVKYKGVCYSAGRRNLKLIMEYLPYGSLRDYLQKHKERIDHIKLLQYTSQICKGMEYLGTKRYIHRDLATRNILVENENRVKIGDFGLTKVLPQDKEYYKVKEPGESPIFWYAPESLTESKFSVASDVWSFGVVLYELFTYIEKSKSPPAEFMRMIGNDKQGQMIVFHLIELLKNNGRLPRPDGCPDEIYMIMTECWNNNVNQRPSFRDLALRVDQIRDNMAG

[3] = Assay Conditions Km (ATP 90 μM for Jak1)
[4] = Assay Conditions Km (ATP 90 μM for Jak1, 30 μM for Jak2)

| Compound | pIC50 ([1]; Assay Conditions 1 mM ATP) | JAK2/JAK1 IC50 ratio ([2]; Assay Conditions 1 mM ATP) | pIC50 [1, 3] | JAK2/JAK1 IC50 ratio [2, 4] |
| --- | --- | --- | --- | --- |
| N#CC[C@@H]([C@H]1CCN(c2nc(S(=O)(=O)CC(F)(F)F)c(F)cc2F)C1)n1cc(-c2ncnc3[nH]ccc23)cn1 [Example 131, (3S)-3-((3S)-1-{3,5-difluoro-6-[(2,2,2-trifluoroethyl)-sulfonyl]pyridin-2-yl}pyrrolidin-3-yl)-3-[4-(7H-pyrrolo[2,3-d]pyrimidin-4-yl)-1H-pyrazol-1-yl]propanenitrile trifluoroacetate] | > 7.30 | 8.1 | – | – |
| N#CCC(C1CCN(c2ccnc(C(=O)Nc3ccccc3)c2)C1)n1cc(-c2ncnc3[nH]ccc23)cn1 (single isomer, unassigned) [Example 154, 4-(3-{2-cyano-1-[4-(7H-pyrrolo[2,3-d]pyrimidin-4-yl)-1H-pyrazol-1-yl]ethyl}pyrrolidin-1-yl)-N-phenylpyridine-2-carboxamide] | > 7.30 | >11.8 | – | – |
| N#CCC(C1CCN(c2nc3cccnc3o2)C1)n1ccc(-c2ncnc3[nH]ccc23)c1 (single isomer, unassigned) [32, Step 2a, enantiomer 1] | – | – | > 7.30 | 3.7 |
| N#CCC(n1cc(-c2ncnc3[nH]ccc23)cn1)C1(F)CCN(c2nc3cccnc3o2)C1 (single isomer, unassigned) [31, Step 4b, enantiomer 2] | 6.30 to 7.00 | 0.8 | – | – |
| C#Cc1cnc(N2CC[C@H]([C@H](CC#N)n3cc(-c4ncnc5[nH]ccc45)cn3)C2)c(C#N)n1 [Example 143, 3-((3S)-3-{(1S)-2-cyano-1-[4-(7H-pyrrolo[2,3-d]pyrimidin-4-yl)-1H-pyrazol-1-yl]ethyl}pyrrolidin-1-yl)-6-ethynylpyrazine-2-carbonitrile trifluoroacetate] | > 7.30 | >4.5 | – | – |
| N#CCC(C1CCN(c2nc3cccnc3o2)C1)n1ccc(-c2ncnc3[nH]ccc23)c1 (single isomer, unassigned) [32, Step 2b (racemate)] | – | – | 7.00 to 7.30 | 0.2 |
| N#CC[C@@H]([C@H]1CCN(c2ncc(CO)nc2C#N)C1)n1cc(-c2ncnc3[nH]ccc23)cn1 [Example 140, 3-((3S)-3-{(1S)-2-cyano-1-[4-(7H-pyrrolo[2,3-d]pyrimidin-4-yl)-1H-pyrazol-1-yl]ethyl}pyrrolidin-1-yl)-6-(hydroxymethyl)pyrazine-2-carbonitrile trifluoroacetate] | > 7.30 | 17.4 | – | – |
| CCOc1cccc2nc(N3CCC(C(CC#N)n4cc(-c5ncnc6[nH]ccc56)cn4)C3)oc12 (single isomer, unassigned) [Example 163, 3-(4-(7H-pyrrolo[2,3-d]pyrimidin-4-yl)-1H-pyrazol-1-yl)-3-(1-(7-ethoxybenzo[d]oxazol-2-yl)pyrrolidin-3-yl)propanenitrile] | > 7.30 | 3.3 | – | – |
| N#CCC(C1CCN(c2nc3ccccc3o2)C1)n1cc(-c2ncnc3[nH]ccc23)cn1 (single isomer, unassigned) [9, Step 3b] | – | – | > 7.30 | 6.3 |
| N#CCC(C1CCN(c2nc3c(O)cccc3o2)C1)n1cc(-c2ncnc3[nH]ccc23)cn1 (single isomer, unassigned) [Example 165, 3-[1-(4-hydroxy-1,3-benzoxazol-2-yl)pyrrolidin-3-yl]-3-[4-(7H-pyrrolo[2,3-d]pyrimidin-4-yl)-1H-pyrazol-1-yl]propanenitrile] | > 7.30 | 7.1 | – | – |
| N#CCC(C1CCN(c2ccc3c(n2)[S+]([O-])CC3)C1)n1cc(-c2ncnc3[nH]ccc23)cn1 (single isomer, unassigned) [Example 28, 3-[1-(1-oxido-2,3-dihydrothieno[2,3-b]pyridin-6-yl)pyrrolidin-3-yl]-3-[4-(7H-pyrrolo[2,3-d]pyrimidin-4-yl)-1H-pyrazol-1-yl]propanenitrile] | > 7.30 | 4 | – | – |
| CS(=O)(=O)c1cccc(N2CCC(C(CC#N)n3cc(-c4ncnc5[nH]ccc45)cn3)C2)c1C#N (racemic) [Example 41, ±2-(3-{2-cyano-1-[4-(7H-pyrrolo[2,3-d]pyrimidin-4-yl)-1H-pyrazol-1-yl]ethyl}pyrrolidin-1-yl)-6-(methylsulfonyl)benzonitrile] | > 7.30 | 11 | – | – |
| CS(=O)(=O)c1nc(N2CC[C@H](C(CF)n3cc(-c4ncnc5[nH]ccc45)cn3)C2)c(F)cc1F (stereo partly drawn) [Example 132, 4-[1-(1-{(3S)-1-[3,5-difluoro-6-(methylsulfonyl)pyridin-2-yl]pyrrolidin-3-yl}-2-fluoroethyl)-1H-pyrazol-4-yl]-7H-pyrrolo [2,3-d]pyrimidine trifluoroacetate] | > 7.30 | 8.9 | – | – |
| N#CC[C@@H]([C@H]1CCN(c2ncc3ncsc3n2)C1)n1cc(-c2ncnc3[nH]ccc23)cn1 [Example 102, (3S)-3-[4-(7H-pyrrolo[2,3-d]pyrimidin-4-yl)-1H-pyrazol-1-yl]-3-[(3S)-1-[1,3]thiazolo[5,4-d]pyrimidin-5-ylpyrrolidin-3-yl]propanenitrile bis(trifluoroacetate)] | > 7.30 | 12.8 | – | – |
| CNC(=O)c1cc(N2CCC(C(CC#N)n3cc(-c4ncnc5[nH]ccc45)cn3)C2)ccn1 (single isomer, unassigned) [Example 152, 4-(3-{2-cyano-1-[4-(7H-pyrrolo[2,3-d]pyrimidin-4-yl)-1H-pyrazol-1-yl]ethyl}pyrrolidin-1-yl)-N-methylpyridine-2-carboxamide] | > 7.30 | 6.7 | – | – |
| N#CC[C@@H]([C@H]1CCN(c2ccc(F)c(F)n2)C1)n1cc(-c2ncnc3[nH]ccc23)cn1.O=C(O)C(F)(F)F [Example 89, (3S)-3-[(3S)-1-(5,6-difluoropyridin-2-yl)pyrrolidin-3-yl]-3-[4-(7H-pyrrolo[2,3-d]pyrimidin-4-yl)-1H-pyrazol-1-yl]propanenitrile trifluoroacetate] | > 7.30 | 3.1 | – | – |
| N#CCC(C1CCN(c2ccc3c(n2)S(=O)(=O)CC3)C1)n1ccc(-c2ncnc3[nH]ccc23)c1 (single isomer, unassigned) [34, enantiomer 1] | > 7.30 | 5.6 | – | – |
| N#CCC(C1CCN(c2nccc(C#N)c2Cl)C1)n1cc(-c2ncnc3[nH]ccc23)cn1 (racemic) [Example 38, ±3-chloro-2-(3-{2-cyano-1-[4-(7H-pyrrolo[2,3-d]pyrimidin-4-yl)-1H-pyrazol-1-yl]ethyl}pyrrolidin-1-yl)isonicotinonitrile trifluoroacetate] | 7.00 to 7.30 | 3.3 | – | – |
| N#Cc1ncccc1N1CC[C@H](C(CF)n2cc(-c3ncnc4[nH]ccc34)cn2)C1 (stereo partly drawn) [Example 117, 3-((3S)-3-{2-fluoro-1-[4-(7H-pyrrolo[2,3-d]pyrimidin-4-yl)-1H-pyrazol-1-yl]ethyl}pyrrolidin-1-yl)pyridine-2-carbonitrile trifluoroacetate] | > 7.30 | 3.7 | – | – |
| N#CCC(C1CCN(c2nc3c(F)cccc3o2)C1)n1cc(-c2ncnc3[nH]ccc23)cn1 (single isomer, unassigned) [Example 20, 3-[1-(4-fluoro-1,3-benzoxazol-2-yl)pyrrolidin-3-yl]-3-[4-(7H-pyrrolo[2,3-d]pyrimidin-4-yl)-1H-pyrazol-1-yl]propanenitrile] | > 7.30 | 10.4 | – | – |
| N#Cc1ncsc1N1CC[C@H](C(CF)n2cc(-c3ncnc4[nH]ccc34)cn2)C1 (stereo partly drawn) [Example 126, 5-((3S)-3-{2-fluoro-1-[4-(7H-pyrrolo[2,3-d]pyrimidin-4-yl)-1H-pyrazol-1-yl]ethyl}pyrrolidin-1-yl)-1,3-thiazole-4-carbonitrile trifluoroacetate] | > 7.30 | 5.9 | – | – |
| CC(C)Nc1ccnc(N2CCC(C(CC#N)n3cc(-c4ncnc5[nH]ccc45)cn3)C2)n1 (stereo not shown) [Example 7, 3-{1-[4-(isopropylamino)pyrimidin-2-yl]pyrrolidin-3-yl}-3-[4-(7H-pyrrolo[2,3-d]pyrimidin-4-yl)-1H-pyrazol-1-yl]propanenitrile] | – | – | > 7.30 | 4.7 |
| N#CC[C@@H]([C@H]1CCN(c2nc(F)c(F)cc2F)C1)n1cc(-c2ncnc3[nH]ccc23)cn1 [Example 67, (3S)-3-[4-(7H-pyrrolo[2,3-d]pyrimidin-4-yl)-1H-pyrazol-1-yl]-3-[(3S)-1-(3,5,6-trifluoropyridin-2-yl)pyrrolidin-3-yl]propanenitrile trifluoroacetate salt] | > 7.30 | 5.6 | – | – |
| CCc1cnc(N2CC[C@H]([C@H](CC#N)n3cc(-c4ncnc5[nH]ccc45)cn3)C2)c(C#N)n1 [Example 144, 3-((3S)-3-{(1S)-2-cyano-1-[4-(7H-pyrrolo[2,3-d]pyrimidin-4-yl)-1H-pyrazol-1-yl]ethyl}pyrrolidin-1-yl)-6-ethylpyrazine-2-carbonitrile trifluoroacetate] | > 7.30 | >6.9 | – | – |
| CS(=O)(=O)c1cccc(N2CCC(C(CC#N)n3cc(-c4ncnc5[nH]ccc45)cn3)C2)n1 (single isomer, unassigned) [Example 26, 3-{1-[6-(methylsulfonyl)pyridin-2-yl]pyrrolidin-3-yl}-3-[4-(7H-pyrrolo[2,3-d]pyrimidin-4-yl)-1H-pyrazol-1-yl]propanenitrile] | 7.00 to 7.30 | 5.2 | – | – |
| N#CCC(C1CCN(c2cncc(Cl)n2)C1)n1cc(-c2ncnc3[nH]ccc23)cn1 (single isomer, unassigned) [1 (rac)] | – | – | > 7.30 | 3 |
